Where “and” joins values, the source holds several entries; their conditions need not be identical. Identical values can stand only once. Toxic doses and inconclusive results are not listed. Rule for the calls: active = survival T/C of 150% or more; inactive = T/C below 125% in these data. Numbered stars: 1 amine (or outer) side, 2 acyl side, 3 side chain; on linkers, the order of the positions; unused ones are H or OH. Peptide text beside a SMILES is read from it. γGlu = O=C(O)[CH](CCC(=O)[*:2])N[*:1]
System: BDF1 mice, B16 melanoma ip, median survival T/C
Assay: NCI In Vivo Anticancer Drug Screen. Data for tumor model B16 Melanoma (intraperitoneal) in B6D2F1 (BDF1) mice
Conditions: endpoint: median survival time, higher = longer survival
Summary of the method: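 Mice with transplantable tumors; drug vs vehicle groups; endpoint survival or tumor size; value = T/C.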

[1] = dose: 3.12 mg/kg/injection, schedule: Q01DX009 (ip), vehicle: Klucel (hydroxypropylcellulose) (HPC)
[2] = dose: 6.25 mg/kg/injection, schedule: Q01DX009 (ip), vehicle: Klucel (hydroxypropylcellulose) (HPC)
[3] = dose: 12.5 mg/kg/injection, schedule: Q01DX009 (ip), vehicle: Klucel (hydroxypropylcellulose) (HPC)
[4] = dose: 25.0 mg/kg/injection, schedule: Q01DX009 (ip), vehicle: Klucel (hydroxypropylcellulose) (HPC)
[5] = dose: 50.0 mg/kg/injection, schedule: Q01DX009 (ip), vehicle: Klucel (hydroxypropylcellulose) (HPC)
[6] = dose: 100.0 mg/kg/injection, schedule: Q01DX009 (ip), vehicle: saline with Tween-80
[7] = dose: 12.5 mg/kg/injection, schedule: Q04DX003 (ip), vehicle: saline with Tween-80
[8] = dose: 25.0 mg/kg/injection, schedule: Q04DX003 (ip), vehicle: saline with Tween-80
[9] = dose: 25.0 mg/kg/injection, schedule: Q01DX009 (ip), vehicle: saline with Tween-80
[10] = dose: 50.0 mg/kg/injection, schedule: Q01DX009 (ip), vehicle: saline with Tween-80

Measured: T/C

Cc1ccc(C(=O)[O][Hg][CH2]C2COC([CH2][Hg][O]C(=O)c3ccc(C)cc3)CO2)cc1 (configuration not stated)
inactive: dose: 0.09 mg/kg/injection, schedule: Q01DX009 (ip), vehicle: Klucel (hydroxypropylcellulose) (HPC) 92 % of control | dose: 0.19 mg/kg/injection, schedule: Q01DX009 (ip), vehicle: Klucel (hydroxypropylcellulose) (HPC) 87 % of control | dose: 0.39 mg/kg/injection, schedule: Q01DX009 (ip), vehicle: Klucel (hydroxypropylcellulose) (HPC) 99 % of control | dose: 0.78 mg/kg/injection, schedule: Q01DX009 (ip), vehicle: Klucel (hydroxypropylcellulose) (HPC) 100 % of control | dose: 1.56 mg/kg/injection, schedule: Q01DX009 (ip), vehicle: Klucel (hydroxypropylcellulose) (HPC) 100 % of control | [1] 94 % of control and 106 % of control | [2] 92 % of control and 107 % of control | [3] 94 % of control and 99 % of control | [4] 94 % of control and 96 % of control | [5] 89 % of control and 94 % of control

NC(CCC(=O)NC(CCC(=O)O)C(=O)NC(CCC(=O)O)C(=O)O)C(=O)O (stereo not drawn) (γGlu-Glu-Glu-OH; configuration not given here)
inactive: dose: 50.0 mg/kg/injection, schedule: Q01DX009 (ip), vehicle: saline 92 % of control | dose: 100.0 mg/kg/injection, schedule: Q01DX009 (ip), vehicle: saline 96 % of control | dose: 200.0 mg/kg/injection, schedule: Q01DX009 (ip), vehicle: saline 89 % of control

COc1cc2ccc(CC(=O)NCc3ccccc3)cc2cc1OC
inactive: [6] 122 % of control | dose: 135.0 mg/kg/injection, schedule: Q01DX009 (ip), vehicle: Klucel (hydroxypropylcellulose) (HPC) 123 % of control | dose: 200.0 mg/kg/injection, schedule: Q01DX009 (ip), vehicle: Klucel (hydroxypropylcellulose) (HPC) 110 % of control

Cc1cccc(C)c1NC(=S)N(C)C
inactive: [1] 102 % of control | dose: 3.13 mg/kg/injection, schedule: Q01DX009 (ip), vehicle: saline with Tween-80 110 % of control | [2] 100 % of control | dose: 6.25 mg/kg/injection, schedule: Q01DX009 (ip), vehicle: saline with Tween-80 115 % of control | [3] 91 % of control and 100 % of control | dose: 12.5 mg/kg/injection, schedule: Q01DX009 (ip), vehicle: saline with Tween-80 112 % of control

CCn1c(O)c(C=N)c(=O)n(CC)c1=O
inactive: dose: 150.0 mg/kg/injection, schedule: Q04DX003 (ip), vehicle: Klucel (hydroxypropylcellulose) (HPC) 90 % of control

CC(C)(C)NC/C(=C\c1ccccc1)C(=O)c1ccccc1
inactive: dose: 6.25 mg/kg/injection, schedule: Q04DX003 (ip), vehicle: saline with Tween-80 100 % of control | [3] 96 % of control | [7] 98 % of control | [4] 96 % of control | [8] 97 % of control and 102 % of control

c1ccc2c(NCCCCCCNc3c4ccccc4nc4ccccc34)c3ccccc3nc2c1
active: dose: 10.0 mg/kg/injection, schedule: Q01DX009 (ip), vehicle: Klucel (hydroxypropylcellulose) (HPC) 174 % of control | dose: 20.0 mg/kg/injection, schedule: Q01DX009 (ip), vehicle: Klucel (hydroxypropylcellulose) (HPC) 179 % of control
inactive: dose: 1.25 mg/kg/injection, schedule: Q01DX009 (ip), vehicle: Klucel (hydroxypropylcellulose) (HPC) 124 % of control

Cc1nnc(NC(=O)CCl)s1
inactive: [9] 97 % of control | [10] 105 % of control | [6] 97 % of control

O=C(O)CSc1nc(-c2ccccc2)c(-c2ccccc2)n1-c1ccccn1
inactive: dose: 12.5 mg/kg/injection, schedule: Q01DX009 (ip), vehicle: water 98 % of control | dose: 25.0 mg/kg/injection, schedule: Q01DX009 (ip), vehicle: water 97 % of control | dose: 50.0 mg/kg/injection, schedule: Q01DX009 (ip), vehicle: water 98 % of control | dose: 100.0 mg/kg/injection, schedule: Q01DX009 (ip), vehicle: water 98 % of control

Cc1ccc(S(=O)(=O)Nc2ncc([N+](=O)[O-])s2)cc1
inactive: [7] 102 % of control | [8] 109 % of control | dose: 50.0 mg/kg/injection, schedule: Q04DX003 (ip), vehicle: saline with Tween-80 109 % of control

O=C(CCN1CCCCCCC1)c1cccc([N+](=O)[O-])c1
inactive: [5] 100 % of control | dose: 100.0 mg/kg/injection, schedule: Q01DX009 (ip), vehicle: Klucel (hydroxypropylcellulose) (HPC) 97 % of control

CCOC(=O)N1CCc2nc3ccc(Cl)cc3cc21
inactive: [9] 113 % of control | [10] 111 % of control | [6] 124 % of control | dose: 200.0 mg/kg/injection, schedule: Q01DX009 (ip), vehicle: saline with Tween-80 106 % of control

From PubChem BioAssay AID192 (DTP/NCI, 2004)
